Patent US7745639B2, “Mitotic kinesin inhibitors” (Merck & Co., Inc., priority 2002, dated 2010)

Molecular target: T1, human KSP motor domain (KSP(367H)) (Homo sapiens, UniProt P52732)
T1 construct: were used to amplify the motor domain and the neck linker region; made in house; host or cells: E. coli BL21 (DE3), vector pRSETa
T1 sequence (P52732 18-359 limits assumed): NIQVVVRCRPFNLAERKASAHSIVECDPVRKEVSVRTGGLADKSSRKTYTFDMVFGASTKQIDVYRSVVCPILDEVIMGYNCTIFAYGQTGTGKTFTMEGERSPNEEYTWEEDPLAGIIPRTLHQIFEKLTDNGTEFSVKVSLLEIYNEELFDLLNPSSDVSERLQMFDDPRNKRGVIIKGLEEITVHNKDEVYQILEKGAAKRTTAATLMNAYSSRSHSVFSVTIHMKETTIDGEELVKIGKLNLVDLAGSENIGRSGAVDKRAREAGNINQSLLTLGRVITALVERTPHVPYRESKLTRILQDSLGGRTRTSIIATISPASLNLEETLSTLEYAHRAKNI
Assay: Kinesin ATPase in vitro assay
Format: biochemical
Details: not given
Text: I. Kinesin ATPase In Vitro Assay
Cloning and Expression of Human Poly-Histidine Tagged KSP Motor Domain (KSP(367H))
Plasmids for the expression of the human KSP motor domain construct were cloned by PCR using a pBluescript full length human KSP construct (Blangy et al., Cell, vol.83, pp 1159-1169, 1995) as a template. The N-terminal primer 5′-[…] (SEQ.ID.NO.: 1) and the C-terminal primer 5′-[…] (SEQ.ID.NO.: 2) were used to amplify the motor domain and the neck linker region. The PCR products were digested with AseI and XhoI, ligated into the NdeI/XhoI digestion product of pRSETa (Invitrogen) and transformed into E. coli BL21 (DE3).
Cells were grown at 37° C. to an OD600 of 0.5. After cooling the culture to room temperature expression of KSP was induced with 100 μM IPTG and incubation was continued overnight. Cells were pelleted by centrifugation and washed once with ice-cold PBS. Pellets were flash-frozen and stored −80° C.
Cell pellets were thawed on ice and resuspended in lysis buffer (50 mM K-HEPES, pH 8.0, 250 mM KCl, 0.1% Tween, 10 mM imidazole, 0.5 mM Mg-ATP, 1 mM PMSF, 2 mM benzimidine, 1× complete protease inhibitor cocktail (Roche)). Cell suspensions were incubated with 1 mg/ml lysozyme and 5 mM β-mercaptoethanol on ice for 10 minutes, followed by sonication (3×30 sec). All subsequent procedures were performed at 4° C. Lysates were centrifuged at 40,000×g for 40 minutes. Supernatants were diluted and loaded onto an SP Sepharose column (Pharmacia, 5 ml cartridge) in buffer A (50 mM K-HEPES, pH 6.8, 1 mM MgCl2, 1 mM EGTA, […], 1 mM DTT) and eluted with a 0 to 750 mM KCl gradient in buffer A. Fractions containing KSP were pooled and incubated with Ni-NTA resin (Qiagen) for one hour. The resin was washed three times with buffer B (Lysis buffer minus PMSF and protease inhibitor cocktail), followed by three 15-minute incubations and washes with buffer B. Finally, the resin was incubated and washed for 15 minutes three times with buffer C (same as buffer B except for pH 6.0) and poured into a column. KSP was eluted with elution buffer (identical to buffer B except for 150 mM KCl and 250 mM imidazole). KSP-containing fractions were pooled, made 10% in sucrose, and stored at −80° C.
Microtubules are prepared from tubulin isolated from bovine brain. Purified tubulin (>97% MAP-free) at 1 mg/ml is polymerized at 37° C. in the presence of 10 μM paclitaxel, 1 mM DTT, 1 mM GTP in BRB80 buffer (80 mM K-PIPES, 1 mM EGTA, 1 mM MgCl2 at pH 6.8). The resulting microtubules are separated from non-polymerized tubulin by ultracentrifugation and removal of the supernatant. The pellet, containing the microtubules, is gently resuspended in 10 μM paclitaxel, 1 mM DTT, 50 μg/ml ampicillin, and 5 μg/ml chloramphenicol in BRB80.
The kinesin motor domain is incubated with microtubules, 1 mM ATP (1:1 MgCl2: Na-ATP), and compound at 23° C. in buffer containing 80 mM K-HEPES (pH 7.0), 1 mM EGTA, 1 mM DTT, 1 mM MgCl2, and 50 mM KCl. The reaction is terminated by a 2-10 fold dilution with a final buffer composition of 80 mM HEPES and 50 mM EDTA. Free phosphate from the ATP hydrolysis reaction is measured via a quinaldine red/ammonium molybdate assay by adding 150 μl of quench C buffer containing a 2:1 ratio of quench A:quench B. Quench A contains 0.1 mg/ml quinaldine red and 0.14% polyvinyl alcohol; quench B contains 12.3 mM ammonium molybdate tetrahydrate in 1.15 M sulfuric acid. The reaction is incubated for 10 minutes at 23° C., and the absorbance of the phospho-molybdate complex is measured at 540 nm.

SMILES	IC50
CC(=O)N1N=C(c2ccccc2Cl)CC1c1cccc(O)c1 (stereo not drawn) [Compound 1-7, 3-[1-acetyl-3-(2-chlorophenyl)-4,5-dihydro-1H-pyrazol-5-yl]phenyl]	≤ 50 µM

Same assay, conditions: kinesin motor domain incubated with microtubules, 1 mM ATP and compound at 23° C.; free phosphate by quinaldine red/ammonium molybdate, 540 nm; read-out: IC50

SMILES	IC50
CC(C)C(=O)N1N=C(c2ccccc2Cl)CC1c1cccc(O)c1 (stereo not drawn) [Compound 2-1, 3-[3-(2-chlorophenyl)-1-isobutyryl-4,5-dihydro-1H-pyrazol-5-yl]phenyl]	≤ 50 µM
NCCCC1(c2ccccc2)CC(c2cc(F)ccc2F)=NN1C(=O)N1CCOCC1 (stereo not drawn) [Compound 7-7, 3-[3-(2,5-difluorophenyl)-1-(morpholin-4-ylcarbonyl)-5-phenyl-4,5-dihydro-1H-pyrazol-5-yl]propan-1-amine]	≤ 50 µM
O=C(N1CCNCC1)N1N=C(c2cc(F)ccc2F)CC1c1ccccc1 (stereo not drawn) [Compound 5-6, 1-{[3-(2,5-difluorophenyl)-5-phenyl-4,5-dihydro-1H-pyrazol-1-yl]carbonyl}piperazine]	≤ 50 µM
CS(=O)(=O)N1N=C(c2cc(F)ccc2F)CC1c1ccccc1 (stereo not drawn) [Compound 8-1, 3-(2,5-difluorophenyl)-1-(methylsulfonyl)-5-phenyl-4,5-dihydro-1H-pyrazole]	≤ 50 µM

The remaining lines, values ahead:

IC50	SMILES
≤ 50 µM	CN1N=C(c2cc(F)ccc2F)CC1(C)c1ccccc1 (stereo not drawn) [Compound 6-2, 3-(2,5-difluorophenyl)-1,5-dimethyl-5-phenyl-4,5-dihydro-1H-pyrazole]
≤ 50 µM	CCNC(=O)N1N=C(c2cc(F)ccc2F)CC1(CCCN(C)C)c1ccccc1 (stereo not drawn) [Compound 9-2, 3-(2,5-difluorophenyl)-5-[3-(dimethylamino)propyl]-N-ethyl-5-phenyl-4,5-dihydro-1H-pyrazole-1-carboxamide]
≤ 50 µM	CN(C)C(=O)N1N=C(c2cc(F)ccc2F)CC1(CCC(N)c1ccccc1)c1ccccc1 (stereo not drawn) [Compound 11-2, 5-(3-amino-3-phenylpropyl)-3-(2,5-difluorophenyl)-N,N-dimethyl-5-phenyl-4,5 dihydro-1H-pyrazole-1-carboxamide]
≤ 50 µM	CC(=O)N1N=C(c2cc(F)ccc2F)CC1c1cccc(O)c1 (racemic) [Compound 4-5, 3-[1-acetyl-3-(2,5-difluorophenyl)-4,5-dihydro-1H-pyrazol-5-yl]phenyl]
≤ 50 µM	CC(=O)N1N=C(c2ccccc2Cl)CC1(C)c1cccc(O)c1 (stereo not drawn) [Compound 3-3, 3-[1-acetyl-3-(2-chlorophenyl)-5-methyl-4,5-dihydro-1H-pyrazol-5-yl]phenyl]
≤ 50 µM	CC(=O)N1N=C(c2cc(F)ccc2F)C(C)C1c1ccccc1 (single isomer, unassigned) [Compound 12-2, 1-acetyl-3-(2,5-difluorophenyl)-4-methyl-5-phenyl-4,5-dihydro-1H-pyrazole]
≤ 50 µM	CCNC(=O)N1N=C(c2cc(F)ccc2F)CC1(CCCNC(=O)c1ncc[nH]1)c1ccccc1 (stereo not drawn) [Compound 10-2, 3-(2,5-difluorophenyl)-N-ethyl-5-{3-[(1H-imidazol-2-ylcarbonyl)amino]propyl}-5-phenyl-4,5-dihydro-1H-pyrazole-1-carboxamide]
